Source: ChEMBL document CHEMBL2331557, “Antidepressant abietane diterpenoids from Chinese eaglewood” (J Nat Prod, 2013)
pIC50: −log10 of the molar value.

Key:
Format in all cases: subcellular
[1] = species on record: Rattus norvegicus; experiment: Inhibition of [3H]NE reuptake at NET in rat brain synaptosomes at 10 uM
[2] = target: Sodium-dependent serotonin transporter (Rattus norvegicus, UniProt P31652); experiment: Inhibition of [3H]5-HT reuptake at SERT in rat brain synaptosomes
[3] = Inhibition of [3H]NE reuptake at NET in rat brain synaptosomes

Sodium-dependent serotonin transporter, sequence (P31652 whole entry): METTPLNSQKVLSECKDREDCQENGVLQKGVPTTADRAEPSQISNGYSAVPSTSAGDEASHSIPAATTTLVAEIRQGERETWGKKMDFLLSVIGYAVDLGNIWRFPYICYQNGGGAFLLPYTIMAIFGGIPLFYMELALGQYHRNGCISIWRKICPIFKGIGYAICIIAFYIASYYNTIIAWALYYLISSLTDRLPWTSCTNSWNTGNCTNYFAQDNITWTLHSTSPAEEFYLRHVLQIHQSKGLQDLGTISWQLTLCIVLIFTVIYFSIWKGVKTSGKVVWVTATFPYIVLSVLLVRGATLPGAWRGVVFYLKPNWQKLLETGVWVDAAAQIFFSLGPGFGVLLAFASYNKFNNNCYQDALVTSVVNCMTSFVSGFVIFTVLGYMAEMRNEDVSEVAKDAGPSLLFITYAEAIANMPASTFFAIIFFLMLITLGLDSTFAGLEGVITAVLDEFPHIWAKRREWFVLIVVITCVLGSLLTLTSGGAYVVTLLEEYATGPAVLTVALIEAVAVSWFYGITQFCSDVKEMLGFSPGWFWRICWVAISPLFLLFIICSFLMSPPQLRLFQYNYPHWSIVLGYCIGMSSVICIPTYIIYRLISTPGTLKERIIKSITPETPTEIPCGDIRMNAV

| SMILES | inhibition [1] [%] | pIC50 [2] | pIC50 [3] |
| --- | --- | --- | --- |
| CNCC[C@H](Oc1cccc2ccccc12)c1cccs1 | 81.4 |  |  |
| C[C@]12CCC[C@@](C)(C(=O)O)[C@@H]1CC(=O)C1CC(=O)CC[C@@H]12 (some centres undefined) | 18.9 |  |  |
| CC(C)(O)[C@]1(O)CCC2=C(C(=O)C[C@H]3[C@](C)(C(=O)O)CCC[C@]23C)[C@H]1O | 0 |  |  |
| C=C(C)c1ccc2c(c1)[C@H](O)C[C@H]1[C@](C)(C(=O)O)CCC[C@]21C | 73.8 |  |  |
| CC(C)[C@@]1(O)C=C2[C@H](O)C[C@@H]3[C@](C)(CCC[C@@]3(C)C(=O)O)[C@H]2C[C@@H]1O [AQUILARABIETIC ACID B] | 39.1 | 5.49 |  |
| CC(C)[C@@]1(O)C=C2[C@H](O)C[C@H]3[C@](C)(C(=O)O)CCC[C@]3(C)[C@@]2(O)CC1 [AQUILARABIETIC ACID A] | 81.8 |  | 6.04 |
| CC(C)[C@]1(O)C=C2[C@H](O)C[C@@H]3[C@](C)(CCC[C@@]3(C)C(=O)O)[C@H]2C[C@H]1O | 34.4 |  |  |
| CCO[C@H]1C[C@H]2C(=CC[C@@H]3[C@]2(C)CCC[C@@]3(C)C(=O)O)C=C1C(C)C | 13.4 |  |  |
| CC(C)[C@]1(O)CC[C@H]2C(=C[C@H](O)[C@@H]3[C@]2(C)CCC[C@@]3(C)C(=O)O)[C@H]1O | 37.2 |  |  |
| CC(C)[C@@]12C=C3[C@H](O)C[C@@H]4[C@](C)(CCC[C@@]4(C)C(=O)O)[C@H]3C[C@@H]1OC(C)(C)O2 | 37.6 |  |  |
| COC(C)(C)c1ccc2c(c1)[C@H](O)C[C@H]1[C@](C)(C(=O)O)CCC[C@]21C | 70.4 |  |  |
| CC(C)[C@@]12CC[C@H]3C(=C[C@@H]4OC(=O)[C@]5(C)CCC[C@@]3(C)[C@@H]45)[C@@H]1O2 | 8.1 |  |  |
